Reference: paper PMC10324454, “Novel pyrimidine Schiff bases and their selenium-containing nanoparticles as dual inhibitors of CDK1 and tubulin polymerase: design, synthesis, anti-proliferative evaluation, and molecular modelling” (Journal of Enzyme Inhibition and Medicinal Chemistry, 2023)

How the values were obtained:
A549 = assay: cells; parameters: MTT cytotoxicity assay, formazan absorbance, viability IC50; settings: Homo sapiens
Protocol: (§1) The cytotoxic activity of all synthesised compounds, both normal and nano-sized forms, was evaluated against three cancer cell lines, breast cancer (MCF-7), hepatocellular carcinoma (HepG-2), and non-small cell lung cancer (A549), while the normal Vero cell line was performed for the promising compounds 4, 6 and their nano-sized 4NPs, 6NPs, using the MTT assay according to the literature. The cell lines were obtained from ATCC (American Type Culture Collection). 5-Fluorouracil was used as a control. It is worth noting that freshly prepared nanoparticle-based compounds were used in each of the conducted experiments. The protocol of the MTT assay was illustrated in detail in the Supplementary File. S3 1.1. Biological activity 1.1.1. In vitro cytotoxicity assay The cytotoxic activity of all synthesized compounds, both normal and nano-sized forms, was evaluated against three cancer cell lines, breast cancer (MCF-7), hepatocellular carcinoma (HepG-2), and non-small cell lung cancer (A549), while the normal Vero cell line was performed for the promising compounds 4, 6 and their nano-sized 4NPs, 6NPs, using the MTT assay according to the literature. The cell lines were obtained from ATCC (American Type Culture Collection). 5-Fluorouracil was used as a reference drug. The cytotoxic activities of the examined compounds were quantified by inoculating a 96-well tissue culture plate with 1 X 10 5 cells / mL (100 uL/well) and incubating it at 37°C for 24 hours to develop a complete monolayer sheet. After forming a confluent sheet of cells, the growth medium was decanted from 96-well microtiter plates, and the cell monolayer was washed twice with wash media. Two-fold dilutions of tested samples were made in RPMI medium with 2% serum (maintenance medium), and 0.1 mL of each dilution was tested in different wells, with three wells serving as controls and receiving only maintenance medium. Following that, the plate was incubated at 37°C and examined. Cells were investigated for any physical signs of toxicity, such as partial or complete monolayer loss, rounding, shrinkage, or cell granulation. MTT solution was prepared (5mg/ml in PBS) (BIO BASIC CANADA INC), and 20 uL MTT solution was added to each well. After 5 minutes on a shaking table at 150 rpm to thoroughly mix the MTT into the media, it was incubated (37 ° C, 5% CO2) for 4 hours to allow the MTT to be metabolized. Formazan (MTT metabolic product) was resuspended in 200 uL DMSO and shaken at 150 rpm for 5 minutes to t

MCF-7 = assay: cells; parameters: MTT cytotoxicity assay, formazan absorbance, viability IC50; settings: Homo sapiens, MCF7
Protocol: as §1

HepG-2 = assay: cells; parameters: MTT cytotoxicity assay, formazan absorbance, viability IC50; settings: Homo sapiens, HepG2
Protocol: as §1

in vitro = assay: in vitro; parameters: MTT cytotoxicity assay, formazan absorbance, viability IC50; settings: african green monkey, vero cells; read-out: IC50 Vero
Protocol: The cytotoxic activity of all synthesised compounds, both normal and nano-sized forms, was evaluated against three cancer cell lines, breast cancer (MCF-7), hepatocellular carcinoma (HepG-2), and non-small cell lung cancer (A549), while the normal Vero cell line was performed for the promising compounds 4, 6 and their nano-sized 4NPs, 6NPs, using the MTT assay according to the literature. The cell lines were obtained from ATCC (American Type Culture Collection). 5-Fluorouracil was used as a control. It is worth noting that freshly prepared nanoparticle-based compounds were used in each of the conducted experiments. The protocol of the MTT assay was illustrated in detail in the Supplementary File. S3 1.1. Biological activity 1.1.1. In vitro cytotoxicity assay The cytotoxic activity of all synthesized compounds, both normal and nano-sized forms, was evaluated against three cancer cell lines, breast cancer (MCF-7), hepatocellular carcinoma (HepG-2), and non-small cell lung cancer (A549), while the normal Vero cell line was performed for the promising compounds 4, 6 and their nano-sized 4NPs, 6NPs, using the MTT assay according to the literature. […] The cytotoxic activities of the examined compounds were quantified by inoculating a 96-well tissue culture plate with 1 X 10 5 cells / mL (100 uL/well) and incubating it at 37°C for 24 hours to develop a complete monolayer sheet. […]

[1] = target: T1, tubulin (tubulin polymerase, colchicine binding site); assay: colchicine-tubulin competition-binding assay; settings: read-out: Tubulin polymerase (CBS) (IC50 μM ± SD)
T1 construct: with alpha/beta-tubulin heterodimer

CDK1 = target: T2, CDK1 (Homo sapiens, UniProt P06493); assay: in vitro CDK1/cyclin B1 kinase inhibition assay (kit); format: biochemical; settings: read-out: CDK1 (IC50 μM ± SD)
T2 construct: with cyclin B1
T2 sequence (P06493 whole entry): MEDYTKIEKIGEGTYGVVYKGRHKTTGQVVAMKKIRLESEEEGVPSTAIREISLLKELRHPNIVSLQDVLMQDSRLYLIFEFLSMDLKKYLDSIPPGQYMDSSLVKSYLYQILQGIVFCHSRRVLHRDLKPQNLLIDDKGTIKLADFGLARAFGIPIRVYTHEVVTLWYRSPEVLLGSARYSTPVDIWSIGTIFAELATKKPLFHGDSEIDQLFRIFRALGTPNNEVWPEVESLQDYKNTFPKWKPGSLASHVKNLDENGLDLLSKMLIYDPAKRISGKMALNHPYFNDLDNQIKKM
T2 sequence (P14635 whole entry partner): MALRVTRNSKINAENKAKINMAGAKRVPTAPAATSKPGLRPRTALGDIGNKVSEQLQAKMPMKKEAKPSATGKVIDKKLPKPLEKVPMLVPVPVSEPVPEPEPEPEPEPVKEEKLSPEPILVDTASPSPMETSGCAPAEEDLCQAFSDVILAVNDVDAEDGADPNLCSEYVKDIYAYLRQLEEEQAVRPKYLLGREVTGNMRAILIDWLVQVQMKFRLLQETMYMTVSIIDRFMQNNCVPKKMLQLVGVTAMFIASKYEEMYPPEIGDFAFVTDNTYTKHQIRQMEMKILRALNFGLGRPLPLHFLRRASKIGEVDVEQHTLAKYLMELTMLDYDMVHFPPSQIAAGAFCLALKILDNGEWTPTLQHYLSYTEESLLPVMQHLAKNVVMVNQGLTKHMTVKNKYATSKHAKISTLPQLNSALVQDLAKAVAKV

With `O=c1[nH]cc(F)c(=O)[nH]1` [5-FU, 5-fluorouracil] the IC50 (A549) was 760 nM, the IC50 (MCF-7) was 1820 nM and the IC50 (HepG-2) was 1360 nM. It also gave a CC50 (in vitro) of 3040 nM.

Work on `CCn1c(N)c(/N=C/c2ccc(Br)cc2)c(=O)[nH]c1=O` [compound 9, (E)-6-amino-5-((4-bromobenzylidene)amino)-1-ethylpyrimidine-2,4(1H,3H)-dione] yielded an IC50 (HepG-2) of 3470 ± 90 nM.

`Cn1c(N)c(/N=C/c2ccc(O)cc2)c(=O)[nH]c1=O` [compound 5, (E)-6-amino-5-((4-hydroxybenzylidene)amino)-1-methylpyrimidine-2,4(1H,3H)-dione] gave an IC50 (HepG-2) of 4070 ± 80 nM.

`CCn1c(N)c(/N=C/c2ccc(O)cc2)c(=O)[nH]c1=O` [compound 6, (E)-6-amino-1-ethyl-5-((4-hydroxybenzylidene)amino)pyrimidine-2,4(1H,3H)-dione] showed an IC50 (HepG-2) of 1970 ± 50 nM.

With `CN(C)c1ccc(/C=N/c2c(N)n(C)c(=O)[nH]c2=O)cc1` [compound 4, (E)-6-amino-5-((4-(dimethylamino)benzylidene)amino)-1-methylpyrimidine-2,4(1H,3H)-dione] the IC50 [1] was 1.93 ± 0.119 µM, the IC50 (CDK1) was 2.18 ± 0.06 µM and the IC50 (HepG-2) was 1070 ± 30 nM.

With `CCn1c(N)c(/N=C/c2ccccc2[N+](=O)[O-])c(=O)[nH]c1=O` [compound 8, (E)-6-amino-1-ethyl-5-((2-nitrobenzylidene)amino)pyrimidine-2,4(1H,3H)-dione] the IC50 (HepG-2) was 2100 ± 90 nM.

Work on `CCn1c(N)c(/N=C/c2ccc([N+](=O)[O-])cc2)c(=O)[nH]c1=O` [compound 7, (E)-6-amino-1-ethyl-5-((4-nitrobenzylidene)amino)pyrimidine-2,4(1H,3H)-dione] yielded an IC50 (HepG-2) of 3380 ± 110 nM.
